SMILES strings stand for the structures. Like-named read-outs stand apart in the source and are kept apart here. Where only a bound is given, the exact number is not on record here.

This experiment concerns the target recombinant Mcl-1 (residues 172-327) (Homo sapiens (Human), UniProt Q07820). As to the kind of experiment: Fluorescence polarization anisotropy competition assay (FITC-Bak or FITC-Bim BH3 peptide) with Mcl-1. Format: binding. As to conditions: Table 2, FITC-Bak or FITC-Bim peptide competition, Ki converted from IC50, read-out: Ki for Inhibition of Mcl-1.

Sequence of recombinant Mcl-1 (residues 172-327) (Q07820 172-327): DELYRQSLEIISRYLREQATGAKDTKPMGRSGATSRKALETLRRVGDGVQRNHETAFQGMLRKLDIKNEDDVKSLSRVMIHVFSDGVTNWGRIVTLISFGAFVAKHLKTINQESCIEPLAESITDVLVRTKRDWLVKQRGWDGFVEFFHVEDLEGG

As a reminder, the Ki is a measure of affinity in units of concentration, obtained from inhibition or displacement. With `Cc1cc(OCCCc2c3n(c4c(-c5c(C)nn(C)c5C)c(Cl)ccc24)C[C@H](C)N(Cc2ccc(C(=O)O)cc2)C3=O)cc(C)c1Cl` [I-139, (S)-4-((7-chloro-10-(3-(4-chloro-3,5-dimethylphenoxy)propyl)-3-methyl-1-oxo-6-(1,3,5-trimethyl-1H-pyrazol-4-yl)-3,4-dihydropyrazino[1,2-a]indol-2(1H)-yl)methyl)benzoic acid], the Ki (Ki bins given in nM) is less than 50 nM. Turning to `Cc1cc(OCCCc2c3n(c4c(-c5c(C)nn(C)c5C)c(Cl)ccc24)CCCN(c2ccc(-c4nn[nH]n4)cc2)C3=O)cc(C)c1Cl` [I-357, 2-(4-(2H-tetrazol-5-yl)phenyl)-8-chloro-1-(3-(4-chloro-3,5-dimethylphenoxy)propyl)-7-(1,3,5-trimethyl-1H-pyrazol-4-yl)-2,3,4,5-tetrahydro-1H-[1,4]diazepino[1,2-a]indol-1-one], under “Ki bins given in nM”, the Ki is less than 50 nM. As for `Cc1cc(OCCCc2c3n(c4c(-c5c(C)nn(C)c5C)c(Cl)ccc24)CCCN(Cc2cc(CCNC(=O)CC(C)C)cc(C(=O)O)c2)C3=O)cc(C)c1Cl` [I-307, 3-((8-chloro-11-(3-(4-chloro-3,5-dimethylphenoxy)propyl)-1-oxo-7-(1,3,5-trimethyl-1H-pyrazol-4-yl)-4,5-dihydro-1H-[1,4]diazepino[1,2-a]indol-2(3H)-yl)methyl)-5-(2-(3-methylbutanamido)ethyl)benzoic acid], the Ki (Ki bins given in nM) is less than 50 nM.

Turning to `Cc1cc(OCCCc2c3n(c4c(-c5c(C)nn(C)c5C)c(Cl)ccc24)CC(C)CN(Cc2ccc(C(=O)O)cn2)C3=O)cc(C)c1Cl` (centres unmarked) [I-134, 6-((8-chloro-11-(3-(4-chloro-3,5-dimethylphenoxy)propyl)-4-methyl-1-oxo-7-(1,3,5-trimethyl-1H-pyrazol-4-yl)-4,5-dihydro-1H-[1,4]diazepino[1,2-a]indol-2(3H)-yl)methyl)nicotinic acid], the Ki (Ki bins given in nM) was less than 50 nM. On to `Cc1cc(OCCCc2c3n(c4c(-c5c(C)nn(C)c5C)c(Cl)ccc24)CCC(C)N(Cc2cccc(C(=O)O)c2)C3=O)cc(C)c1Cl` (centres unmarked) [I-125, 3-((8-chloro-11-(3-(4-chloro-3,5-dimethylphenoxy)propyl)-3-methyl-1-oxo-7-(1,3,5-trimethyl-1H-pyrazol-4-yl)-4,5-dihydro-1H-[1,4]diazepino[1,2-a]indol-2(3H)-yl)methyl)benzoic acid], for which the Ki (Ki bins given in nM) was less than 50 nM. On the same count and under the same terms, the value for `Cc1cc(OCCCc2c3n(c4c(-c5c(C)nn(C)c5C)c(Cl)ccc24)C(C)CN(Cc2ccc(C(=O)O)cn2)C3=O)cc(C)c1Cl` (centres unmarked) [I-129, 6-((7-chloro-10-(3-(4-chloro-3,5-dimethylphenoxy)propyl)-4-methyl-1-oxo-6-(1,3,5-trimethyl-1H-pyrazol-4-yl)-3,4-dihydropyrazino[1,2-a]indol-2(1H)-yl)methyl)nicotinic acid] was less than 50 nM. For `Cc1cc(OCCCc2c3n(c4c(-c5c(C)nn(C)c5C)cccc24)CCCN(Cc2cc(C(=O)O)cc(N4CCCC4)c2)C3=O)cc(C)c1Cl` [I-84, 3-((11-(3-(4-chloro-3,5-dimethylphenoxy)propyl)-1-oxo-7-(1,3,5-trimethyl-1H-pyrazol-4-yl)-4,5-dihydro-1H-[1,4]diazepino[1,2-a]indol-2(3H)-yl)methyl)-5-(pyrrolidin-1-yl)benzoic acid], where the note is “Ki bins given in nM”, the Ki was 101 to 299 nM. Regarding `Cc1cc(OCCCc2c3n(c4c(-c5c(C)nn(C)c5C)c(Cl)ccc24)CCCN(c2cc(Br)cc(C(=O)O)c2)C3=O)cc(C)c1Cl` [I-218, 3-bromo-5-(8-chloro-11-(3-(4-chloro-3,5-dimethylphenoxy)propyl)-1-oxo-7-(1,3,5-trimethyl-1H-pyrazol-4-yl)-4,5-dihydro-1H-[1,4]diazepino[1,2-a]indol-2(3H)-yl)benzoic acid], where the note is “Ki bins given in nM”, the Ki was less than 50 nM.

`Cc1cc(OCCCc2c(C(=O)NCC(=O)NS(=O)(=O)c3ccc(Oc4ccccc4)cc3)[nH]c3ccccc23)cc(C)c1Cl` [I-8, 3-(3-(4-chloro-3,5-dimethylphenoxy)propyl)-N-(2-oxo-2-((4-phenoxyphenyl)sulfonamido)ethyl)-1H-indole-2-carboxamide]: the Ki (Ki bins given in nM) fell in the range of 101 to 299 nM.

`Cc1cc(OCCCc2c3n(c4c(-c5c(C)nn(C)c5C)c(Cl)ccc24)C(C)[C@@H](C)NC3=O)cc(C)c1Cl` (stereo partly drawn) [I-119, (3R)-7-chloro-10-(3-(4-chloro-3,5-dimethylphenoxy)propyl)-3,4-dimethyl-6-(1,3,5-trimethyl-1H-pyrazol-4-yl)-3,4-dihydropyrazino[1,2-a]indol-1(2H)-one]: under “Ki bins given in nM”, the inhibition constant Ki lay in the range of 101 to 299 nM. Regarding `Cc1cc(OCCCc2c3n(c4c(-c5c(C)nn(C)c5C)c(Cl)ccc24)CC(C)CN(Cc2cccc(C(=O)O)c2)C3=O)cc(C)c1Cl` (centres unmarked) [I-135, 3-((8-chloro-11-(3-(4-chloro-3,5-dimethylphenoxy)propyl)-4-methyl-1-oxo-7-(1,3,5-trimethyl-1H-pyrazol-4-yl)-4,5-dihydro-1H-[1,4]diazepino[1,2-a]indol-2(3H)-yl)methyl)benzoic acid], the inhibition constant Ki (Ki bins given in nM) is less than 50 nM. In the case of `Cc1cc(OCCCc2c3n(c4c(-c5c(C)nn(C)c5C)c(Cl)ccc24)CCCN(Cc2cc(OCCC(C)C)cc(C(=O)O)c2)C3=O)cc(C)c1Cl` [I-300, 3-((8-chloro-11-(3-(4-chloro-3,5-dimethylphenoxy)propyl)-1-oxo-7-(1,3,5-trimethyl-1H-pyrazol-4-yl)-4,5-dihydro-1H-[1,4]diazepino[1,2-a]indol-2(3H)-yl)methyl)-5-(isopentyloxy)benzoic acid], the Ki (Ki bins given in nM) was less than 50 nM.

As to `COC(=O)[C@H](CC(C)C)NC(=O)CNC(=O)c1[nH]c2c(-c3c(C)nn(C)c3C)cccc2c1CCCOc1cc(C)c(Cl)c(C)c1` [I-289, methyl (3-(3-(4-chloro-3,5-dimethylphenoxy)propyl)-7-(1,3,5-trimethyl-1H-pyrazol-4-yl)-1H-indole-2-carbonyl)glycyl-L-leucinate], the Ki (Ki bins given in μM) lay in the range of 10000 to 50000 nM.

With `Cc1cc(OCCCc2c3n(c4c(-c5c(C)nn(C)c5C)c(Cl)ccc24)CCCN(c2cccc4c2ccn4C)C3=O)cc(C)c1Cl` [I-247, 8-chloro-1-(3-(4-chloro-3,5-dimethylphenoxy)propyl)-2-(1-methyl-1H-indol-4-yl)-7-(1,3,5-trimethyl-1H-pyrazol-4-yl)-2,3,4,5-tetrahydro-1H-[1,4]diazepino[1,2-a]indol-1-one], the Ki (Ki bins given in nM) was less than 50 nM. For `Cc1cc(OCCCc2c3n(c4c(-c5c(C)nn(C)c5C)c(Cl)ccc24)[C@@H](C)CN(c2ccc(C(=O)O)c4ncccc24)C3=O)cc(C)c1Cl` [I-168, (S)-5-(7-chloro-10-(3-(4-chloro-3,5-dimethylphenoxy)propyl)-4-methyl-1-oxo-6-(1,3,5-trimethyl-1H-pyrazol-4-yl)-3,4-dihydropyrazino[1,2-a]indol-2(1H)-yl)quinoline-8-carboxylic acid], the Ki (Ki bins given in nM) is less than 50 nM. Regarding `Cc1cc(OCCCc2c3n(c4c(-c5c(C)nn(C)c5C)c(Cl)ccc24)CCCN(c2cc(C(=O)O)cc4c2ncn4C)C3=O)cc(C)c1Cl` [I-365, 4-(8-chloro-11-(3-(4-chloro-3,5-dimethylphenoxy)propyl)-1-oxo-7-(1,3,5-trimethyl-1H-pyrazol-4-yl)-4,5-dihydro-1H-[1,4]diazepino[1,2-a]indol-2(3H)-yl)-1-methyl-1H-benzo[d]imidazole-6-carboxylic acid], the Ki (Ki bins given in nM) was less than 50 nM. With `Cc1cc(OCCCc2c(C(=O)N[C@@H]3CCN(C(=O)C(=O)O)C3)[nH]c3c(-c4c(C)nn(C)c4C)c(Cl)ccc23)cc(C)c1Cl` [I-326, (R)-2-(3-(6-chloro-3-(3-(4-chloro-3,5-dimethylphenoxy)propyl)-7-(1,3,5-trimethyl-1H-pyrazol-4-yl)-1H-indole-2-carboxamido)pyrrolidin-1-yl)-2-oxoacetic acid], the inhibitory constant (Ki) (Ki bins given in nM) is less than 50 nM. For `Cc1cc(OCCCc2c(C(=O)N3CCN(c4ccc(C(=O)O)cc4)CC3)n(C)c3c(-c4c(C)nn(C)c4C)c(Cl)ccc23)cc(C)c1Cl` [I-339, 4-(4-(6-chloro-3-(3-(4-chloro-3,5-dimethylphenoxy)propyl)-1-methyl-7-(1,3,5-trimethyl-1H-pyrazol-4-yl)-1H-indole-2-carbonyl)piperazin-1-yl)benzoic acid], under “Ki bins given in nM”, the Ki was less than 50 nM. Same read-out and setting: the value for `Cc1cc(OCCCc2c3n(c4c(-c5c(C)nn(C)c5C)c(Cl)ccc24)CCCN(CC(=O)O)C3=O)cc(C)c1Cl` [I-304, 2-(8-chloro-11-(3-(4-chloro-3,5-dimethylphenoxy)propyl)-1-oxo-7-(1,3,5-trimethyl-1H-pyrazol-4-yl)-4,5-dihydro-1H-[1,4]diazepino[1,2-a]indol-2(3H)-yl)acetic acid] was less than 50 nM.

Turning to `Cc1cc(OCCCc2c(C(=O)NCC(=O)NS(=O)(=O)C3CC3)[nH]c3ccccc23)cc(C)c1Cl` [I-9, 3-(3-(4-chloro-3,5-dimethylphenoxy)propyl)-N-(2-(cyclopropanesulfonamido)-2-oxoethyl)-1H-indole-2-carboxamide], under “Ki bins given in nM”, the Ki lay within 501 to 999 nM. The same measure, in the same setting: the same measure for `Cc1cc(OCCCc2c(C(=O)Nc3ccc(C(=O)O)c(N(C)CCN(C)C)c3)[nH]c3c(-c4c(C)nn(C)c4C)c(Cl)ccc23)cc(C)c1Cl` [I-92, 4-(6-chloro-3-(3-(4-chloro-3,5-dimethylphenoxy)propyl)-7-(1,3,5-trimethyl-1H-pyrazol-4-yl)-1H-indole-2-carboxamido)-2-((2-(dimethylamino)ethyl)(methyl)amino)benzoic acid]: less than 50 nM; for `Cc1cc(OCCCc2c(C(=O)N[C@H]3CCCC[C@H]3C(=O)O)[nH]c3c(-c4c(C)nn(C)c4C)c(Cl)ccc23)cc(C)c1Cl` [I-333, (1R,2S)-2-(6-chloro-3-(3-(4-chloro-3,5-dimethylphenoxy)propyl)-7-(1,3,5-trimethyl-1H-pyrazol-4-yl)-1H-indole-2-carboxamido)cyclohexane-1-carboxylic acid]: less than 50 nM. In the case of `Cc1cc(OCCCc2c3n(c4c(-c5c(C)nn(C)c5C)c(Cl)ccc24)[C@H](C)CN(Cc2ccc(C(=O)O)o2)C3=O)cc(C)c1Cl` [I-152, (R)-5-((7-chloro-10-(3-(4-chloro-3,5-dimethylphenoxy)propyl)-4-methyl-1-oxo-6-(1,3,5-trimethyl-1H-pyrazol-4-yl)-3,4-dihydropyrazino[1,2-a]indol-2(1H)-yl)methyl)furan-2-carboxylic acid], the Ki (Ki bins given in nM) was less than 50 nM.

These data come from US10533010B2, “Substituted indole Mcl-1 inhibitors” (Vanderbilt University, priority 2014, dated 2020).
